# Measured values published in patent US7189756B2, “Pyrrolidine derivatives” (Hoffman-La Roche Inc., priority 2000, dated 2007).
row,melting point [°C],SMILES
1,146,Cc1c(-c2ccccc2)nnn1C[C@@H]1C[C@@H](S)CN1S(=O)(=O)c1ccc2ccccc2c1
2,126,O=C(Nc1ccccc1F)N1C[C@H](S)C[C@H]1CNCc1cc(F)ccc1F
3,70,Nc1c(-c2ccccc2)nnn1C[C@@H]1C[C@@H](S)CN1S(=O)(=O)c1ccc2ccccc2c1
4,189,CS(=O)(=O)N1C[C@H](S)C[C@H]1Cn1nnc(C(N)=O)c1N
5,68 to 69,CS(=O)(=O)N1C[C@H](S)C[C@H]1COCC1CCCCC1
6,95,CCOC(=O)c1nnn(C[C@@H]2C[C@@H](S)CN2S(=O)(=O)c2ccc3ccccc3c2)c1C
